# Experimental data as given in patent US20250188085A1, “COMPOSITIONS AND METHODS FOR INHIBITION OF RAS” (THERAS, INC., priority 2022, published 2025).
# pIC50: −log10 of the molar value.
# Assays:
# [1] = biological target: T1, Avi-KRAS G12C (1-169) GppNHp/RAF1 RBD-3×FLAG (52-151) (Homo sapiens, UniProt P01116, G12C); assay: Raf1 RBD-KRAS G12C-GppNHp disruption (protein:protein interaction HTRF assay); assay type: biochemical
# T1 construct: Avi-KRAS G12C (1-169) GppNHp/RAF1 RBD-3×FLAG (52-151)
# In short: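 HTRF measuring disruption of 50 nM Avi-KRAS G12C (1-169) loaded with GppNHp binding RAF1 RBD-3×FLAG (52-151), in pH 7.5 Tris buffer with 5 mM MgCl2, 0.1% BSA, 10% DMSO. KRAS preincubated with compound 1 h, then RBD 1 h, then detection reagents 1 h, all at room temperature. Compound titration 30-0.02 μM; activity expressed as percent of DMSO control.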
# [2] = tested on: pERK in NCI-H358 cells; assay: Cell-based pERK HTRF assay; details: Homo sapiens, NCI-H358, 0.5 h, 30 min incubation, read-out: pERK in NCI-H358 cell inhibition IC50
# In short: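 Cells seeded at 4×10^4/well in RPMI with 10% FBS, then next day treated for 30 min with a 9-point, 3-fold series from 75 μM top concentration at 0.25% DMSO. Lysates were read for pERK by HTRF (d2/Eu cryptate antibodies) after 4–24 h at room temperature, emission at 615 nm.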
# [3] = biological target: T2, GTP-loaded KRAS4b (amino acids 1-169) G12C/C118S protein (Homo sapiens, UniProt P01116, C118S/G12C); assay: Covalent cysteine 12 modification by MALDI-TOF MS, GTP-loaded KRAS G12C; assay type: binding; details: 15 minutes reaction time point
# T2 construct: KRAS4b (amino acids 1-169) G12C/C118S protein; made in house
# Experimental: Reaction: 1 μM of GppNHp-, GTP-, or GDP-loaded KRAS4b (amino acids 1-169) G12C/C118S protein (produced in-house by Protein Expression Laboratory, FNLCR/Leidos Biomed) in 20 mM 4-(2-hydroxyethyl)-1-piperazineethanesulfonic acid (HEPES) buffer containing 150 mM NaCl, 1 mM MgCl2, pH 7.3 was prepared freshly before assay. Ten-μL aliquots of protein were dispensed onto low volume 384-well plate, then 375 nL DMSO, and 25 nL of tested compounds from 5 mM DMSO stocks were added to appropriate wells using ECHO 555 acoustic liquid handler (Labcyte Inc.). For each reaction/assay, three blanks were prepared by mixing 10 μL of protein solution with 400 nL DMSO. The contents of the wells were carefully mixed by aspiration, and then each plate was sealed with an adhesive cover, centrifuged at 2000 g for 1 minute, and kept in the dark at room temperature until 5 min, 15 min, 30 min, or 2 h collections.
# Target pretreatment: Before each assay MALDI target (Bruker MPT 384 ground steel BC) was pre-treated by pipetting on each spot 0.75 μL of saturated sinapinic acid in acetonitrile (ACN).
# Sample preparation: At collection time point, 2 μL of reaction mixtures were pipetted out into 20 μL MALDI matrix solution (saturated solution of sinapinic acid in 1:1 ACN:water solution containing 0.75% trifluoroacetic acid (TFA)) deposited on 384 well polypropylene plate. Resulting solution was mixed by aspiration, centrifuged at 2000 g for 1 minute, then 1 μL aliquots were dispensed on pre-treated MALDI target using Beckman Coulter Biomek FXP 96/384-Span-8 Laboratory Automation Workstation. Finally, the MALDI target was dried under mild vacuum to produce spots with fine crystalline structure.
# Measurements: MALDI-TOF measurements were performed on a Bruker Daltonics rapiflex Tissuetyper TOF-TOF mass spectrometer using linear mode and mass range from 18.6 to 21.6 kDa. Detector gain was set to 3.3× (483 V), sample rate to 5 GS/s, real time smoothing to medium (175 MHz), laser smart beam pattern was set to: “MS Thin Layer M5”, and the laser frequency was 10000 Hz. Spectra were automatically collected using custom Auto Xecute method. Laser power was auto adjusted using fuzzy control. The peak selection range was set to be between 19000 and 21500 Da. Peak evaluation uses half width parameter set to be smaller than 40 Da for processed spectrograms (centroid peak detection; smoothed by SavitzkyGolay algorithm using 7 m/z width and 2 cycles; baseline was subtracted using median algorithm with flatness 1 and median level 0.01). Fuzzy control used Proteins/Oligonucleotides protocol with minimum half width 1/10 times above threshold. Up to 40000 satisfactory shots were collected in 10000 shot steps. Dynamic termination was implemented to finish data collection when peak signal/noise ratio was reaching value of 50.
# Spectra processing: Spectra were smoothed by SavitzkyGolay algorithm using 7 m/z width and three cycles. Centroid peak detection algorithm was used with signal to noise threshold set to 6, relative intensity threshold 4%, peak width 10 m/z and median baseline subtraction using flatness of 1 and median level of 0.01. Peak intensity and area under the peak were evaluated and recorded for all peaks between 19,300 Da and 21,550 Da.
# Calculation of percent modification: Percent modification was calculated as a ratio of peak height for protein modified by compound to sum of peak height of remaining protein plus peak height for protein modified by compound. If multiple modifications were observed each was calculated as a ratio of peak height for given modification versus sum of peak heights for all observed protein species. Data reported in Table 5 are from 15 minutes reaction time point.
# [4] = biological target: T3, GppNHp-loaded KRAS4b (amino acids 1-169) G12C/C118S protein (Homo sapiens, UniProt P01116, C118S/G12C); assay: Covalent cysteine 12 modification by MALDI-TOF MS, GppNHp-loaded KRAS G12C; assay type: binding; details: 15 minutes reaction time point
# T3 construct: KRAS4b (amino acids 1-169) G12C/C118S protein; made in house
# In short: (§1)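 KRAS4b 1-169 G12C/C118S loaded with GDP, GppNHp or GTP was used at 1 μM in 20 mM HEPES, 150 mM NaCl, 1 mM MgCl2, pH 7.3, and incubated with compound (5 mM DMSO stock) at room temperature in the dark. % modification at 15 min is adduct peak height over total protein peak heights by linear-mode MALDI-TOF.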
# [5] = biological target: T4, GDP-loaded KRAS4b (amino acids 1-169) G12C/C118S protein (Homo sapiens, UniProt P01116, C118S/G12C); assay: Covalent cysteine 12 modification by MALDI-TOF MS, GDP-loaded KRAS G12C; assay type: binding; details: 15 minutes reaction time point
# T4 construct: KRAS4b (amino acids 1-169) G12C/C118S protein; made in house
# In short: as §1
pIC50 [1],pIC50 [2],GTP-KRAS G12C percent of modification [3],GppNHp-KRAS G12C percent of modification [4],GDP-KRAS G12C percent of modification [5],SMILES
≥ 6.30,≥ 7.00,B (50≤percent of modification <70%),A (percent of modification ≥70%),B (50≤percent of modification <70%),C=CC(=O)N1C[C@@H](F)[C@@H](Oc2nc(OC[C@@]34CCCN3C[C@H](F)C4)nc3cc(-c4ccc(F)c5sc(N)c(C#N)c45)c(C(F)(F)F)cc23)C1 [Compound 50]
≥ 6.30,≥ 7.00,A (percent of modification ≥70%),A (percent of modification ≥70%),A (percent of modification ≥70%),C=CC(=O)N1CC[C@@H](Oc2nc(OC[C@@]34CCCN3C[C@H](F)C4)nc3c(F)c(-c4ccc(F)c5sc(N)c(C#N)c45)ccc23)C1 [Compound 51]
4.70 to 5.30,< 6.00,D (percent of modification <10%),D (percent of modification <10%),D (percent of modification <10%),C=CC(=O)N1CC[C@@H](Oc2nc(OC[C@@]34CCCN3C[C@H](F)C4)nc3c(F)c(-c4ccc(F)c5sc(N)c(C#N)c45)c(F)cc23)C1 [Compound 52]
≥ 6.30,≥ 7.00,D (percent of modification <10%),C (10%≤modification <50%),C (10%≤modification <50%),"C=CC(=O)N1CC[C@@H](Oc2nc(OC[C@@]34CCCN3C[C@H](F)C4)nc3cc(-c4ccc(F)c5sc(N)c(C#N)c45)c(C(F)(F)F)nc23)C1 [Compound 55, 4-(4-(((R)-1-acryloylpyrrolidin-3-yl)oxy)-2-(((2R,7aS)-2-fluorotetrahydro-1H-pyrrolizin-7a (5H)-yl)methoxy)-6-(trifluoromethyl)pyrido[3,2-d]pyrimidin-7-yl)-2-amino-7-fluorobenzo[b]thiophene-3-carbonitrile]"
≥ 6.30,≥ 7.00,B (50≤percent of modification <70%),A (percent of modification ≥70%),A (percent of modification ≥70%),C=CC(=O)N1CC[C@@H](Oc2nc(OC[C@@]34CCCN3C[C@H](F)C4)nc3c(F)c(-c4ccc(F)c5sc(N)c(C#N)c45)ncc23)C1 [Compound 56]
5.30 to 6.30,6.00 to 7.00,D (percent of modification <10%),C (10%≤modification <50%),A (percent of modification ≥70%),C=CC(=O)N1CC[C@@H](Oc2nc(OC[C@@]34CCCN3C[C@H](F)C4)nc3c(F)c(-c4c(F)cc(F)c5sc(N)nc45)ncc23)C1 [Compound 57]
≥ 6.30,≥ 7.00,B (50≤percent of modification <70%),A (percent of modification ≥70%),A (percent of modification ≥70%),C=CC(=O)N1C[C@@H](F)[C@@H](Oc2nc(OC[C@@]34CCCN3C[C@H](F)C4)nc3cc(-c4ccc(F)c5sc(N)nc45)c(C(F)(F)F)cc23)C1 [Compound 58]
≥ 6.30,≥ 7.00,C (10%≤modification <50%),B (50≤percent of modification <70%),A (percent of modification ≥70%),C=CC(=O)N1C[C@H](Oc2nc(OC[C@@]34CCCN3C[C@H](F)C4)nc3cc(-c4ccc(F)c5sc(N)nc45)c(C(F)(F)F)cc23)[C@@H](F)C1 [Compound 59]
≥ 6.30,≥ 7.00,C (10%≤modification <50%),B (50≤percent of modification <70%),A (percent of modification ≥70%),C=CC(=O)N1CC[C@@H](Oc2nc(OC[C@@]34CCCN3C[C@H](F)C4)nc3cc(-c4ccc(F)c5sc(N)nc45)c(C(F)(F)F)cc23)[C@H]1C [Compound 60]
≥ 6.30,≥ 7.00,C (10%≤modification <50%),C (10%≤modification <50%),C (10%≤modification <50%),C=CC(=O)N1CCC(Oc2nc(OC[C@@]34CCCN3C[C@H](F)C4)nc3c(F)c(-c4ccc(F)c5sc(N)c(C#N)c45)c(C(F)(F)F)cc23)C1(C)C (some centres unmarked) [Compound 61]
≥ 6.30,≥ 7.00,C (10%≤modification <50%),B (50≤percent of modification <70%),B (50≤percent of modification <70%),"C=CC(=O)N1CC[C@@H](Oc2nc(OC[C@@]34CCCN3C[C@H](F)C4)nc3c(F)c(-c4ccc(F)c5sc(N)c(C#N)c45)c(C(F)(F)F)cc23)[C@H]1C [Compound 62, 4-(4-(((2R,3R)-1-acryloyl-2-methylpyrrolidin-3-yl)oxy)-8-fluoro-2-(((2R,7aS)-2-fluorotetrahydro-1H-pyrrolizin-7a (5H)-yl)methoxy)-6-(trifluoromethyl)quinazolin-7-yl)-2-amino-7-fluorobenzo[b]thiophene-3-carbonitrile]"
≥ 6.30,≥ 7.00,B (50≤percent of modification <70%),A (percent of modification ≥70%),B (50≤percent of modification <70%),C=CC(=O)N1CC[C@@H](Oc2nc(OC[C@@]34CCCN3C[C@H](F)C4)nc3c(F)c(-c4ccc(F)c5sc(N)c(C#N)c45)c(C(F)(F)F)cc23)[C@H]1CO [Compound 65]
≥ 6.30,≥ 7.00,C (10%≤modification <50%),A (percent of modification ≥70%),A (percent of modification ≥70%),C=CC(=O)N1C[C@H](Oc2nc(OC[C@@]34CCCN3C[C@H](F)C4)nc3c(F)c(-c4ccc(F)c5sc(N)nc45)c(C(F)(F)F)cc23)C[C@H]1CO [Compound 66]
